What was measured:
Format in all cases: in vivo, mouse
DIO mice [1] = assay: Chronic GIPA-1 study: fasting blood glucose, plasma insulin and HOMA-IR in DIO mice; conditions: 4 h fasted, liraglutide 0.2 mg/kg/day SC, GIPA-1 ~4.5 mg/kg/day minipump, n = 10, vs vehicle
Method: 23-week-old male C57BL/6JRj mice (n = 40), fed a HFD (SSNIFF® diet #12492[60% fat, 20% protein, 20% carbohydrate]) for 14 weeks, were distributed into 4 test groups and received daily either vehicle, liraglutide (0.2 mg/kg/day), GIPA-1 (~4.5 mg/kg/day) or liraglutide + GIPA-1 for 4 weeks while still maintained on HFD. GIPA-1 was delivered using minipumps in order to achieve sufficient GIPR antagonism based on the properties of this peptide (Fig 2A). Liraglutide was dissolved in phosphate-buffered saline (PBS) plus 0.1% bovine serum albumin (BSA) (vehicle 1) and GIPA-1 in DMSO/propylene glycol (50/50 volume per volume) (vehicle 2). […] Fasted (4 hrs) blood glucose and insulin levels were measured on study day -3, 14 and 27. […] Blood glucose was measured before their daily dosing and at 0, 15, 30 60, 120, 180 min after glucose administration. Plasma insulin was measured at 0 and 15 min. Whole body weight and food intake were measured throughout the study period. […]
Fasting blood glucose was measured using a BIOSEN c-Line glucose meter (EKF-Diagnostics), insulin was measured using the Meso Scale Diagnostics platform, TG and TC were measured using commercial kits (Roche Diagnostics) on the Cobas C-501 autoanalyzer (Roche), and FFA levels were measured using a Wako Chemicals kit on the Cobas C-501 autoanalyzer, all according to the manufacturers’ instructions. […]

DIO mice [2] = assay: Chronic GIPA-1 study: circulating lipids, liver and fat depots in DIO mice; conditions: day 28, n = 10
Method: 23-week-old male C57BL/6JRj mice (n = 40), fed a HFD (SSNIFF® diet #12492[60% fat, 20% protein, 20% carbohydrate]) for 14 weeks, were distributed into 4 test groups and received daily either vehicle, liraglutide (0.2 mg/kg/day), GIPA-1 (~4.5 mg/kg/day) or liraglutide + GIPA-1 for 4 weeks while still maintained on HFD. GIPA-1 was delivered using minipumps in order to achieve sufficient GIPR antagonism based on the properties of this peptide (Fig 2A). Liraglutide was dissolved in phosphate-buffered saline (PBS) plus 0.1% bovine serum albumin (BSA) (vehicle 1) and GIPA-1 in DMSO/propylene glycol (50/50 volume per volume) (vehicle 2). 100 μL minipumps (Alzet) were filled with GIPA-1 (30 mg/mL) or vehicle 2 and kept in 0.9% saline at 37°C overnight. The minipump was placed subcutaneously through a 1-cm long incision in the neck with the animal under isoflurane anesthesia. Animals were treated with analgesics on day 0–3 (NSAID, carprofen […] SC QD). From day 0 (first dose) through day 28, mice received one of the following four treatments per day: (1) vehicle 1 (subcutaneous injection (SC)) and continuous infusion of vehicle 2 via osmotic minipump; (2) 0.2 mg/kg liraglutide (SC) and continuous infusion of vehicle 2 via osmotic minipump; (3) vehicle 1 (SC) and continuous infusion of GIPA-1 (~4.5 mg/kg/day; 56.8 nmol/kg/h) via osmotic minipump; and (4) liraglutide (0.2 mg/kg liraglutide, SC) plus continuous infusion of GIPA-1 (~4.5 mg/kg/day) via osmotic minipump. Dose levels of GIPA-1 were based on targeting plasma exposure levels sufficient to antagonise endogenous GIP and selected based on in vitro antagonism data. Fasted (4 hrs) blood glucose and insulin levels were measured on study day -3, 14 and 27. OGTT was performed on day 21 of the study. On the day of the OGTT the fasted animals received their daily doses of vehicles and liraglutide thirty minutes before receiving a glucose bolus (2 g/kg). Blood glucose was measured before their daily dosing and at 0, 15, 30 60, 120, 180 min after glucose administration. Plasma insulin was measured at 0 and 15 min. Whole body weight and food intake were measured throughout the study period. On the termination day (day 28), liver, epididymal fat depot, mesenteric fat depot, retroperitoneal fat depot and inguinal fat depot were dissected and weighted. Blood collected from the tail vein was used for determination of free fatty acids (FFAs) plasma concentration and blood collected via cardiac puncture was used for determination of terminal plasma triglyceride (TG) and total cholesterol (TC).
Fasting blood glucose was measured using a BIOSEN c-Line glucose meter (EKF-Diagnostics), insulin was measured using the Meso Scale Diagnostics platform, TG and TC were measured using commercial kits (Roche Diagnostics) on the Cobas C-501 autoanalyzer (Roche), and FFA levels were measured using a Wako Chemicals kit on the Cobas C-501 autoanalyzer, all according to the manufacturers’ instructions. Homeostatic model assessment of insulin resistance (HOMA-IR) was calculated using the following equation: [fasting serum glucose (mmol/L) × fasting serum insulin (pmol/L) / 22.5] to assess insulin resistance.
Fig 4 The effect of GIPR antagonism alone or in combination with liraglutide on lipid homeostasis in DIO mice. […] Statistical analysis was calculated using one-way ANOVA with Dunnett’s post-hoc test. *: p< 0.05, **: p < 0.01, ***: p < 0.001, ****: p<0.0001 compared to vehicle. […]

DIO mice [3] = assay: Chronic GIPA-2 study: body weight and food intake in DIO mice; conditions: 28 days, HFD; liraglutide 0.2 mg/kg SC daily, GIPA-2 10 mg/kg SC daily; n = 10; vs vehicle (combination: vs liraglutide)
Method: For studying the chronic effects of GIPA-2, male C57BL/6JRj mice (n = 40) were fed a HFD (SSNIFF® diet #12492) for 43 weeks. DIO mice were randomized (n = 10 per group) based on baseline blood glucose and body weight. Liraglutide was dissolved in PBS plus 0.1% BSA (Vehicle1) and GIPA-2 in PBS (vehicle 2). Mice received one of the following four treatments daily for 28 days while still maintained on HFD: (1) vehicle 1 (SC) and vehicle 2 (SC); (2) 0.2 mg/kg liraglutide (SC) and vehicle 2; (3) vehicle 1 (SC) and 10 mg/kg GIPA-2 (SC); and (4) 0.2 mg/kg liraglutide (SC) plus 10 mg/kg GIPA-2 (SC). […] Fasted (4 hrs) blood glucose and insulin were measured on study day -4, 10 and 26. […] Blood glucose was measured before their daily dosing and at 0, 15, 30 60, 120, 180 and 240 min after glucose administration. […] Blood glucose was measured before their daily dosing and at 0, 15, 30 60, 120, 180 min after glucose administration. […]
Fig 2 Effects of chronic GIPR antagonism on body weight, food intake, and fasting blood glucose and insulin. […] Statistical analysis was calculated using two-way ANOVA with Tukey’s post-hoc test and one-way ANOVA for AUC with Dunnett’s post-hoc test. *: p< 0.05, **: p < 0.01, ***: p < 0.001, ****: p<0.0001 compared to vehicle.

Substance: liraglutide
- fasting blood glucose (DIO mice [1]; days 14 and 27): significant reductions for the duration of the study
- fasting plasma insulin (DIO mice [1]): reduced in both the liraglutide and combination groups. This was significant for the combination, but not for liraglutide monotherapy
- circulating total cholesterol (TC) (DIO mice [2]): significantly reduced circulating TC and liver TG concentrations
- liver TG (DIO mice [2]): significantly reduced circulating TC and liver TG concentrations
- plasma FFA (DIO mice [2]): no effect on either plasma TG or concentrations of circulating FFA
- plasma TG (DIO mice [2]): no effect on either plasma TG or concentrations of circulating FFA
- retroperitoneal fat weight (DIO mice [2]): reduced in the GIPA-1 study in both the liraglutide and combination groups
- body weight (DIO mice [3]): reduced both body weight and food intake
- cumulative food intake (DIO mice [3]): reduced both body weight and food intake

Source: article PMC8011784, “Chronic peptide-based GIP receptor inhibition exhibits modest glucose metabolic changes in mice when administered either alone or combined with GLP-1 agonism” (PLoS ONE, 2021)
